According to patent publication US20090312265A1, “NOVEL ANTIMICROBIAL PEPTIDES AND USE THEREOF” (priority 2006, published 2009):
No end group written: not given here.

Key:
bacteria = test: Antibacterial activity in vitro; type: cell-based
Experimental: Radial diffusion assays (RDA) were performed essentially as described earlier (Lehrer, R. I., Rosenman, M., Harwig, S. S., Jackson, R. & Eisenhauer, P. (1991) Ultrasensitive assays for endogenous antimicrobial polypeptides, J Immunol Methods. 137, 167-73.).
Briefly, bacteria (E. coli, P. aeruginosa, S. aureus, B. subtilis) or fungi (C. albicans) were grown to mid-logarithmic phase in 10 ml of full-strength (3% w/v) trypticase soy broth (TSB) (Becton-Dickinson, Cockeysville, Md.). The microorganisms were washed once with 10 mM Tris, pH 7.4. 4×10^6 bacterial cfu or 1×10^5 fungal cfu was added to 5 ml of the underlay agarose gel, consisting of 0.03% (w/v) TSB, 1% (w/v) low-electroendoosmosistype (Low-EEO) agarose (Sigma, St Louise Mo.) and a final concentration of 0.02% (v/v) Tween 20 (Sigma). The underlay was poured into a Ø 85 mm petri dish. After agarose solidified, 4 mm-diameter wells were punched and 6 μl of test sample was added to each well. Plates were incubated at 37° C. for 3 hours to allow diffusion of the peptides. The underlay gel was then covered with 5 ml of molten overlay (6% TSB and 1% Low-EEO agarose in dH2O). Antimicrobial activity of a peptide is visualized as a clear zone around each well after 18-24 hours of incubation at 37° C. for bacteria and 28° C. for Candida albicans.

[1] = Liposome leakage assay (carboxyfluorescein release), PA liposomes; conditions: scale: Triton X100 = 100% release; for PA + NaCl (CF release, liposome leakage): 10 mM Tris pH 7.4 with additional 150 mM NaCl; for PA − NaCl (CF release, liposome leakage): 10 mM Tris pH 7.4 without NaCl
Experimental: (§1) Dry lipid films were prepared by dissolving either dioleoylphosphatidylcholine (Avanti Polar Lipids, Alabaster, Ala.) (60 mol %) and cholesterol (Sigma, St Louis, Mo.) (40 mol %), or dioleoylphosphatidylcholine (30 mol %), dioleoylphosphatidic acid (Avanti Polar Lipids, Alabaster, Ala.) (30 mol %) and cholesterol (40 mol %) in chloroform, and then removing the solvent by evaporation under vacuum overnight. Subsequently, buffer solution containing 10 mM Tris, pH 7.4, either with or without additional 150 mM NaCl, was added together with 0.1 M carboxyfluorescein (CF) (Sigma, St Louis, Mo.). After hydration, the lipid mixture was subjected to eight freeze-thaw cycles consisting of freezing in liquid nitrogen and heating to 60° C. Unilamellar liposomes with a diameter of about 130 nm (as found with cryo-TEM; results not shown) were generated by multiple extrusions through polycarbonate filters (pore size 100 nm) mounted in a LipoFast miniextruder (Avestin, Ottawa, Canada). Untrapped carboxyfluorescein was then removed by filtration through two subsequent Sephadex G-50 columns with the relevant Tris buffer as eluent. Both extrusion and filtration was performed at 22° C. In the liposome leakage assay, the well lmown self-quenching of CF was used. Thus, at 100 mM CF is self-quenched, and the recorded fluorescence intensity from liposomes with entrapped CF is low. […] The CF release was determined by monitoring the emitted fluorescence at 520 nm from a liposome dispersion (10 mM lipid in 10 mM Tris pH 7.4). An absolute leakage scale is obtained by disrupting the liposomes at the end of the experiment through addition of 0.8 mM Triton X100 (Sigma, St Louis, Mo.), thereby causing 100% release and dequenching of CF. A SPEX-fluorolog 1650 0.22-m double spectrometer (SPEX Industries, Edison, N.J.) was used for the liposome leakage assay (see Table 4).

[2] = Liposome leakage assay (carboxyfluorescein release), PC liposomes; conditions: scale: Triton X100 = 100% release; for PC + NaCl (CF release, liposome leakage): 10 mM Tris pH 7.4 with additional 150 mM NaCl; for PC − NaCl (CF release, liposome leakage): 10 mM Tris pH 7.4 without NaCl
Experimental: as §1

[3] = CD-spectroscopy, helix content; type: physicochemical; conditions: 10 mM Tris, 10 μM peptide, 37° C.; for Helix content, PA: pH 7.4, PA liposome dispersion (100 μM lipid); for Helix content, PC: pH 7.4, PC liposome dispersion (100 μM lipid); for Helix content, Buffer: pH 7.4, buffer
Experimental: The CD spectra of the peptides in solution were measured on a Jasco J-810 Spectropolarimeter (Jasco, U.K.). The measurements were performed at 37° C. in a 10 mm quartz cuvet under stirring and the peptide concentration was 10 μM. The effect of on peptide secondary structure of liposomes at a lipid concentration of 100 μM was monitired in the range 200-250 nm. The only peptide conformations observed under the conditions investigated were α-helix and random coil. The fraction of the peptide in α-helical conformation, Xα, is calculated from
where A is the recorded CD signal at 225 nm, and Aα and Ac are the CD signal at 225 nm for a reference peptide in 100% α-helix and 100% random coil conformation, respectively. 100% α-helix and 100% random coil references were obtained from 0.133 mM (monomer concentration) poly-L-lysine in 0.1 M NaOH and 0.1 M HCl, respectively. To account for the instrumental differences between measurements the background value (detected at 250 nm, where no peptide signal is present) was subtracted. Signals from the bulk solution were also corrected for (see Table 5).

E. coli bacteria = test: Antibacterial effect of HB-EGF in vitro (bacterial survival); type: cell-based; conditions: HB-EGF at 6 μM, 2×10^6 cfu/ml E. coli, 10 mM Tris, pH 7.4
Experimental: The antibacterial effect of HB-EGF (Q99075, SEQ ID NO: 19) was evaluated in vitro. 2×10^6 cfu/ml of E. coli bacteria were incubated in 50 μl with HB-EGF at 6 μM in 10 mM Tris, pH 7.4 buffer (Tris). The difference in bacterial survival was significant for the HB-EGF treated material vs. the control (no HB-EGF present), i.e. HB-EGF does in it self posses an antibacterial effect, although less pronounced than the peptides being derived from it.

Erythrocytes = type: cell-based; conditions: 1 h
Experimental: EDTA-blood was centrifuged at 800 g for 10 min, whereafter plasma and buffy coat were removed. The erythrocytes were washed three times and resuspended in 5% PBS, pH 7.4. The cells were then incubated with end-over-end rotation for 1 h at 37° C. in the presence of peptides (3-60 μM). 2% Triton X-100 (Sigma-Aldrich) served as positive control. The samples were then centrifuged at 800 g for 10 min. The absorbance of hemoglobin release was measured at λ 540 nm and is in the plot expressed as % of TritonX-100 induced hemolysis (FIG. 5 and table 6). The peptides in table 3A (SEQ ID No. 12-18) were evaluated as described above.

[4] = tested on: Gram-positive and Gram-negative bacterial, fungal, and viral pathogens; conditions: Niyonsaba and Ogawa 2005; cited from earlier work

Substance | antibacterial activity in vitro (bacteria) | PA + NaCl (CF release, liposome leakage) [1] | PA − NaCl (CF release, liposome leakage) [1] | PC + NaCl (CF release, liposome leakage) [2] | PC − NaCl (CF release, liposome leakage) [2] | Helix content, PA [3] | Helix content, PC [3] | Helix content, Buffer [3] | difference in bacterial survival vs. control (E. coli bacteria) | Erythrocytes Hemolysis (%) Mean (Erythrocytes) | antimicrobial activity spectrum [4]
GKRKKKGKGLGKKRDPCLRKYK (listed as Homo sapiens) [GKR22] | shows antibacterial activity in vitro | 2 ± 1 | 42 ± 7 | 4 ± 1 | 72 ± 8 | 10 ± 3% | 5 ± 2% | 8 ± 2% | – | – | –
GRPRESGKKRKRKRKLKPT (listed as Homo sapiens) [GRP19] | show antibacterial activity in vitro | 5 ± 1 | 20 ± 2 | 4 ± 1 | 30 ± 12 | 8 ± 3% | 8 ± 4% | 9 ± 2% | – | – | –
HB-EGF: Human heparin-binding EGF-like growth factor (accession code Q99075) | – | – | – | – | – | – | – | – | significant | – | –
KRKKKGKGLGKKRDPCLRKY [KRK20: A] | – | – | – | – | – | – | – | – | – | 2.25% | –
KRKKKGKGLGKKRLPCLRKY [KRK20: C] | – | – | – | – | – | – | – | – | – | 2.31% | –
KRKKKGKGLGKKRWPCLRKY [KRK20: G] | – | – | – | – | – | – | – | – | – | 2.29% | –
KRKKKGKGWGKKRDPCLRKY [KRK20: D] | – | – | – | – | – | – | – | – | – | 2.56% | –
KRKKKGKGWGKKRLPCLRKY [KRK20: E] | – | – | – | – | – | – | – | – | – | 2.73% | –
KRKKKGKGWGKKRWPCLRKY [KRK20: F] | – | – | – | – | – | – | – | – | – | 3.14% | –
KRKRKGKGLGKKKDPCLRKF [KRK20: B] | – | – | – | – | – | – | – | – | – | 2.26% | –
LKIKTKKVNTADQCANRCTRNKGL (listed as Homo sapiens) [LKI24] | – | 2 ± 2 | 25 ± 4 | 6 ± 3 | 54 ± 4 | 14 ± 4% | 9 ± 3% | 13 ± 3% | – | – | –
LKKNGSCKRGPRTHYGQKAIL (human growth factor) [LKK21, FGF1_HUMAN aa 126-146] | shows antibacterial activity in vitro | – | 4 ± 2 | 6 ± 2 | 26 ± 3 | 10 ± 4% | 13 ± 5% | 11 ± 2% | – | – | –
LKRTGQYKLGSKTGPGQKAIL (listed as Homo sapiens) [LKR21, FGF2_HUMAN aa 127-147] | – | – | 3 ± 1 | – | 2 ± 1 | – | – | – | – | – | –
LLGDFFRKSKEKIGKEFKRIVQRIKDFLRNLVPRTES [LL-37, reference compound] | – | 57 ± 6 | 100 ± 10 | 73 ± 7 | 100 ± 10 | 100 ± 10% | 100 ± 10% | 60 ± 10% | – | – | broad-spectrum antimicrobial activity
LNGKGAPRRGQKTRRKNTSAH (listed as Homo sapiens) [LNG21] | – | – | 9 ± 5 | – | 12 ± 2 | – | – | – | – | – | –
LNQKGIPVRGKKTKKEQKTAH (listed as Homo sapiens) [LNQ21, FGF7_HUMAN aa 167-187] | – | – | 10 ± 1 | – | 2 ± 1 | – | – | – | – | – | –
LRPVQVRKIEIVRRKPIFKKATVT (LRPVQVRKIEIVRKKPIFKKATVT; listed as Homo sapiens) [LRP24] | show antibacterial activity in vitro | 6 ± 3 | 44 ± 10 | 4 ± 4 | 33 ± 11 | 15 ± 3% | 10 ± 4% | 13 ± 3% | – | – | –
PKRKKKGGKNGKNRRNRKKKN (listed as Homo sapiens) [PKR21] | shows antibacterial activity in vitro | – | 13 ± 8 | 6 ± 1 | 38 ± 3 | 9 ± 4% | 9 ± 3% | 10 ± 2% | – | – | –
QRAKTPQTRVTIRTVRVRRPP (listed as Homo sapiens) [QRA21] | show antibacterial activity in vitro | – | 0 ± 1 | – | 10 ± 1 | – | – | – | – | – | –
RVRRPPKGKHRKFHTHDKTA (RVRRPPKGKHRKFKHTHDKTA; listed as Homo sapiens) [RVR21] | show antibacterial activity in vitro | 8 ± 2 | 18 ± 8 | 6 ± 1 | 55 ± 2 | 6 ± 3% | 11 ± 4% | 8 ± 4% | – | – | –
